Here are results for 48 compounds from patent publication US10640495B2, “Heterocycle derivatives having TrkA inhibitory activity” (Shionogi & Co., Ltd., priority 2015, dated 2020).

human TrkA, sequence (P04629 440-796): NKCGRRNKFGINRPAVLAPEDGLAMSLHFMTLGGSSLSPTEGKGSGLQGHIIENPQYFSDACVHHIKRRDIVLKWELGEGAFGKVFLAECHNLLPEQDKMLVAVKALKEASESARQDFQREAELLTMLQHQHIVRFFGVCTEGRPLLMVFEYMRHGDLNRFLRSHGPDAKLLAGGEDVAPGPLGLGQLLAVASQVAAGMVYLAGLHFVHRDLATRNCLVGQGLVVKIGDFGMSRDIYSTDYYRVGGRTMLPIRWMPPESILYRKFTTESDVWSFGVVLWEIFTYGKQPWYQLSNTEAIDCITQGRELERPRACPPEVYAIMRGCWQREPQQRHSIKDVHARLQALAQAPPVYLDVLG

One experiment has as its target human TrkA (Homo sapiens (Human), UniProt P04629). As to the kind of experiment: Human TrkA inhibition assay (Test Example 2). The conditions noted are these: Table 152, human TrkA inhibition; read-out: IC50_nM. The class given is biochemical. In a few lines:
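Mobility-shift readout of phosphorylated versus unphosphorylated fluorescent peptide gave conversion ratio, normalized to DMSO and no-enzyme wells; IC50 by logistic fit of 10- or 15-point 3-fold dilutions. Conditions: 1 nmol/L enzyme, 15 min compound preincubation, then 500 μmol/L ATP plus 1.5 μmol/L peptide, 120 min, 37 °C.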
Turning to `COCCC1C[C@@H](NC(=O)Nc2c(C)c(C3=CCN(C(=O)OC(C)(C)C)CC3)nn2-c2ccccc2)[C@H](c2ccccc2)O1` (stereo partly drawn) [Compound I-20], the IC50 is < 100 nM.
For `COCCN1C[C@@H](NC(=O)Nc2c(C)c(-c3cnc(C)nc3)nn2-c2ccccc2)[C@H](c2ccc(F)c(F)c2)O1` (racemic) [Compound I-26], the IC50 was < 100 nM.
As for `COCCN1C[C@@H](NC(=O)Nc2c(C)c(-c3ccc(C(=O)O)cc3)nn2-c2ccccc2)[C@H](c2ccc(F)c(F)c2)O1` (racemic) [Compound I-35], the IC50 was < 100 nM.
`COCC[C@@H]1C[C@@H](NC(=O)Nc2c(C)c(-c3cnn(C)c3)nn2-c2ccccc2)[C@H](c2ccc(F)c(F)c2)O1` (racemic) [Compound I-23]: the IC50 was < 100 nM.
Turning to `COCCC1C[C@@H](NC(=O)Nc2c(C)c(-c3ccc(C(=O)OC(C)(C)C)cc3)nn2-c2ccccc2)[C@H](c2ccccc2)O1` (stereo partly drawn) [Compound I-13], the IC50 is < 100 nM.

Staying with this experiment, now noted: Table 153, human TrkA inhibition; read-out: IC50.
In the case of `COCCN1C[C@@H](NC(=O)Nc2c(C)c(-c3cnc(C(=O)NCC4CC4)c(C)c3)nn2-c2ccccc2)[C@H](c2ccnc(F)c2)O1` (racemic) [Compound I-170], the IC50 is < 100 nM.
`CNC(=O)c1cc(-c2nn(-c3ccccc3)c(NC(=O)N[C@@H]3CN(CCOC)O[C@H]3c3cccc(F)c3)c2C)cn(C)c1=O` (racemic) [Compound I-143]: the IC50 is < 100 nM.
The same measure, in the same setting: for `COCCN1C[C@@H](NC(=O)Nc2c(C)c(-c3ccnc(C(=O)OCc4ccccc4)c3)nn2-c2ccccc2)[C@H](c2ccc(F)c(F)c2)O1` (racemic) [Compound I-76] the value was < 100 nM; for `CNc1ncc(-c2nn(-c3ccccc3)c(NC(=O)N[C@@H]3CN(CCOC)O[C@H]3c3ccnc(F)c3)c2C)cn1` (racemic) [Compound I-93], < 100 nM; for `CNC(=O)c1cc(-c2nn(-c3ccccc3)c(NC(=O)N[C@@H]3CN(CCOC)O[C@H]3c3ccnc(F)c3)c2C)cnc1OC` (racemic) [Compound I-100], < 100 nM.
`COCCN1C[C@@H](NC(=O)Nc2c(C)c(-c3cnc(C)nc3)nn2-c2ccccc2)[C@H](c2cccc(F)c2)O1` (racemic) [Compound I-140]: the IC50 is < 100 nM.

Staying with this experiment, now noted: Table 154, human TrkA inhibition; read-out: IC50.
Take `COCCN1C[C@@H](NC(=O)Nc2c(C)c(-c3cnc(N4CC(OC(=O)c5ccccc5)C4)nc3)nn2-c2ccccc2)[C@H](c2cc(F)nc(F)c2)O1` (racemic) [Compound I-286]: the IC50 was < 100 nM.
With `Cc1c(-c2cnc3c(cnn3C)c2)nn(-c2ccccc2)c1NC(=O)N[C@@H]1CN(C)O[C@H]1c1ccc(F)c(F)c1` (racemic) [Compound I-207], the IC50 was < 100 nM.
Turning to `COCCN1C[C@@H](NC(=O)Nc2c(C)c(-c3cnc4c(ccc(=O)n4C)c3)nn2-c2ccccc2)[C@H](c2ccnc(F)c2)O1` (racemic) [Compound I-246], the IC50 is < 100 nM.
Take `COCC[C@@H]1C[C@@H](NC(=O)Nc2c(C)c(-c3cnc(N(C)C(=O)OC(C)(C)C)nc3)nn2-c2ccccc2)[C@H](c2ccnc(F)c2)O1` [Compound I-289]: the IC50 is < 100 nM.
For the compound `CNC(=O)c1cc(-c2nn(-c3ccc(F)cc3)c(NC(=O)N[C@@H]3CN(CCOC)O[C@H]3c3ccc(F)c(F)c3)c2C)cnc1OC` (racemic) [Compound I-183], the IC50 was < 100 nM.
`CNc1ncc(-c2nn(-c3ccccc3)c(NC(=O)N[C@@H]3C[C@@H](CCOC)O[C@H]3c3ccnc(F)c3)c2C)cn1` [Compound I-292]: the IC50 was < 100 nM.
As to `COCCC1C[C@@H](NC(=O)Nc2c(C)c(-c3cnc(CO)nc3)nn2-c2ccccc2)[C@H](c2ccccc2)O1` (stereo partly drawn) [Compound I-296], the IC50 was < 100 nM.
In the case of `COCCN1C[C@@H](NC(=O)Nc2c(C)c(-c3cnc(C(N)=O)c(C)c3)nn2-c2ccccc2)[C@H](c2cnc(F)c(F)c2)O1` [Compound I-252], the IC50 is < 100 nM.
The same measure, in the same setting: for `COCCN1C[C@@H](NC(=O)Nc2c(C)c(-c3ccc4nnc(C)n4c3)nn2-c2ccccc2)[C@H](c2ccc(F)cc2)O1` (racemic) [Compound I-267] the value was < 100 nM; for `COCCN1C[C@@H](NC(=O)Nc2c(C)c(-c3cnc(F)nc3)nn2-c2ccccc2)[C@H](c2ccnc(F)c2)O1` (racemic) [Compound I-300], < 100 nM; for `COCCN1C[C@@H](NC(=O)Nc2c(C)c(-c3cc(-c4cn(Cc5ccc(OC)cc5)nn4)c(=O)n(C)c3)nn2-c2ccccc2)[C@H](c2ccc(F)c(F)c2)O1` [Compound I-277], < 100 nM.
Take `COCCN1C[C@@H](NC(=O)Nc2c(C)c(-c3cnc(SC)nc3)nn2-c2ccccc2)[C@H](c2ccnc(F)c2)O1` (racemic) [Compound I-250]: the IC50 is < 100 nM.

The experiment is the same for the next values; noted with them: Table 155, human TrkA inhibition; read-out: IC50.
As to `CNC(=O)c1ccc(-c2nn(-c3ccccc3)c(NC(=O)N[C@@H]3CN(CCOC)O[C@H]3c3cnc(F)c(F)c3)c2C)cn1` (racemic) [Compound I-453], the IC50 was < 100 nM.
As to `COCCN1C[C@@H](NC(=O)Nc2c(C)c(-c3cnc(N4CCC5(CC4)COC5)nc3)nn2-c2ccccc2)[C@H](c2ccnc(F)c2)O1` (racemic) [Compound I-484], the IC50 is < 100 nM.
`COCCN1C[C@@H](NC(=O)Nc2c(C)c(-c3cc(F)c4c(c3)NCCO4)nn2-c2ccccc2)[C@H](c2ccnc(F)c2)O1` (racemic) [Compound I-383]: the IC50 was < 100 nM.
On to `COCCN1C[C@@H](NC(=O)Nc2c(C)c(OCC3CN(C)CCO3)nn2-c2ccccc2)[C@H](c2ccnc(F)c2)O1` (stereo partly drawn) [Compound I-505], for which the IC50 was < 100 nM.
In the case of `COCCN1C[C@@H](NC(=O)Nc2c(C)c(N3CC(c4ccc(F)cc4)C3)nn2-c2ccccc2)[C@H](c2ccnc(F)c2)O1` (racemic) [Compound I-335], the IC50 is < 100 nM.
Turning to `COCCN1C[C@@H](NC(=O)Nc2c(C)c(-c3cnc4c(c3)OCCO4)nn2-c2ccccc2)[C@H](c2ccnc(F)c2)O1` (racemic) [Compound I-427], the IC50 was < 100 nM.
For `COCCN1C[C@@H](NC(=O)Nc2c(C)c(-c3cnc4c(c3)OCCO4)nn2-c2ccccc2)[C@H](c2cnc(F)c(F)c2)O1` (racemic) [Compound I-462], the IC50 was < 100 nM.
As for `COCCN1C[C@@H](NC(=O)Nc2c(C)c(-c3cnc4c(cnn4CC(=O)OC)c3)nn2-c2ccccc2)[C@H](c2ccnc(F)c2)O1` (racemic) [Compound I-446], the IC50 is < 100 nM.
With `COCCN1C[C@@H](NC(=O)Nc2c(C)c(-c3ccc(N4C[C@H]5COC[C@@H](C4)N5C)nc3)nn2-c2ccccc2)[C@H](c2ccnc(F)c2)O1` (racemic) [Compound I-396], the IC50 was < 100 nM.
In the case of `CCC(O)(CC)c1cc(-c2nn(-c3ccccc3)c(NC(=O)N[C@@H]3CN(CCOC)O[C@H]3c3ccnc(F)c3)c2C)cnc1OC` (racemic) [Compound I-354], the IC50 is < 100 nM.
On the same count and under the same terms, for `COCCN1C[C@@H](NC(=O)Nc2c(C)c(-c3cnn(C)c3)nn2CCO)[C@H](c2ccc(F)c(F)c2)O1` [Compound I-493] the value was > 1000 nM.
On to `COCCN1C[C@@H](NC(=O)Nc2c(C)c(-c3ccn4ccnc4c3)nn2-c2ccccc2)[C@H](c2ccnc(F)c2)O1` (racemic) [Compound I-471], for which the IC50 is < 100 nM.

Still in this experiment, the particulars now being: Table 156, human TrkA inhibition; read-out: IC50.
For the compound `COCCN1C[C@@H](NC(=O)Nc2c(C)c(OCC3CN(C(C)=O)CCO3)nn2-c2ccccc2)[C@H](c2ccc(F)c(F)c2)O1` (single isomer, unassigned) [Compound I-578], the IC50 was < 100 nM.
Consider `CCOc1nn(-c2ccccc2)c(NC(=O)N[C@@H]2CN(CC)O[C@H]2c2ccc(F)cc2)c1C` (racemic) [Compound I-541], for which the IC50 was < 100 nM.
With `Cc1c(OCC2CCN(C)CC2)nn(-c2ccccc2)c1NC(=O)N[C@@H]1CN(CCF)O[C@H]1c1ccc(F)c(F)c1` (racemic) [Compound I-567], the IC50 is < 100 nM.
Take `COCCN1C[C@@H](NC(=O)Nc2c(C)c(-c3cnnc(OC)c3)nn2-c2ccccc2)[C@H](c2ccnc(F)c2)O1` (racemic) [Compound I-515]: the IC50 was < 100 nM.
With `COc1ncc(-c2nn(-c3ccccc3)c(NC(=O)N[C@@H]3CN(CCF)O[C@H]3c3ccc(F)c(F)c3)c2C)cn1` (racemic) [Compound I-525], the IC50 was < 100 nM.
The same measure, in the same setting: for `CCN1C[C@@H](NC(=O)Nc2c(C)c(OCC3CN(C(C)=O)CCO3)nn2-c2ccccc2)[C@H](c2ccc(F)c(F)c2)O1` (stereo partly drawn) [Compound I-546] the value was < 100 nM.

Staying with this experiment, now noted: Table 157, human TrkA inhibition; read-out: IC50.
Regarding `CCN1C[C@@H](NC(=O)Nc2c(C)c(OC3CCN(C)CC3)nn2-c2ccccc2)[C@H](c2ccc(F)c(F)c2)O1` (racemic) [Compound I-631], the IC50 is < 100 nM.
Turning to `CCN1C[C@@H](NC(=O)Nc2c(C)c(OCCCN3CCCC3)nn2-c2ccccc2)[C@H](c2ccc(F)c(F)c2)O1` (racemic) [Compound I-661], the IC50 is < 100 nM.
Consider `CCN1C[C@@H](NC(=O)Nc2c(C)c(OCC(=O)NC3CC3)nn2-c2ccccc2)[C@H](c2ccc(F)c(F)c2)O1` (racemic) [Compound I-648], for which the IC50 is < 100 nM.

Staying with this experiment, now noted: human TrkA 1 nmol/L, ATP 500 μmol/L, 120 min at 37° C.; read-out: IC50 values (TrkA phosphorylation inhibition).
Regarding `CCN1C[C@@H](NC(=O)Nc2c(C)c(C3=CCN(C(=O)CO)CC3)nn2-c2ccccc2)[C@H](c2ccc(F)c(F)c2)O1` (racemic) [Compound I-655], the IC50 worked out at 5 nM.
`COCCN1C[C@@H](NC(=O)Nc2c(C(F)(F)F)c(C)nn2-c2ccccc2)[C@H](c2ccnc(F)c2)O1` (racemic) [Compound I-660]: the IC50 is 70 nM.
As for `COCCN1C[C@@H](NC(=O)Nc2c(C)c(-c3cnc(C(N)=O)c(C)c3)nn2-c2ccccc2)[C@H](c2ccnc(F)c2)O1` (racemic) [Compound I-165], the IC50 is 5.3 nM.
Turning to `COCCN1C[C@@H](NC(=O)Nc2c(C)c(-c3ccc4nc(C(N)=O)cn4c3)nn2-c2ccccc2)[C@H](c2cnc(F)c(F)c2)O1` (racemic) [Compound I-309], the IC50 came out at 2 nM.
